Assay results reported in US10363257B2 (ZENITH EPIGENETICS LTD., priority 2013, dated 2019).

Columns and labels:
[1] = target: T1, Brd4 bromodomain 1 (BRD4(1)) (Homo sapiens, UniProt O60885); assay: Inhibition of tetra-acetylated histone H4 binding to Brd4 bromodomain 1 (TR-FRET); conditions: tetra-acetylated histone H4 peptide, first bromodomain of Brd4
T1 construct: made in house; host or cells: E. coli BL21(DE3)
How it was run: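 His-tagged BRD4(1) from E. coli (200 nM) with biotinylated tetra-acetylated H4 peptide (25-50 nM), Eu-cryptate streptavidin and XL665 anti-His, in HEPES pH 7.4/phosphate/KF buffer, 0.2% DMSO. After 2 h at room temperature, TR-FRET 665/620 nm ratio read; IC50 from dose-response curves.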

hIL-17 mRNA = assay: Inhibition of hIL-17 mRNA transcription in OKT3-stimulated peripheral blood mononuclear cells; type: cell-based; conditions: PBMC, human peripheral blood mononuclear cells, OKT3 antibody, 6 h, read-out: IL-17 activity
Protocol: In this example, hIL-17 mRNA in human peripheral blood mononuclear cells was quantitated to measure the transcriptional inhibition of hIL-17 when treated with a compound of the invention.
Human peripheral blood mononuclear cells were plated (2.0×10^5 cells per well) in a 96-well plate in 45 μL OpTimizer T Cell expansion media containing 20 ng/ml IL-2 and penicillin/streptomycin. The cells were treated with the test compound (45 μL at 2× concentration), and then the cells were incubated at 37° C. for 1 h before addition of 10× stock OKT3 antibody at 10 μg/ml in media. Cells were incubated at 37° C. for 6 h before the cells were harvested. At time of harvest, cells were centrifuged (800 rpm, 5 min). Spent media was removed and cell lysis solution (70 μL) was added to the cells in each well and incubated for 5-10 min at room temperature, to allow for complete cell lysis and detachment. mRNA was then prepared using the “mRNA Catcher PLUS plate” (Invitrogen), according to the protocol supplied. After the last wash, as much wash buffer as possible was aspirated without allowing the wells to dry. Elution buffer (E3, 70 μL) was then added to each well. mRNA was then eluted by incubating the mRNA Catcher PLUS plate with Elution Buffer for 5 min at 68° C. and then immediately placing the plate on ice.
The eluted mRNA isolated was then used in a one-step quantitative RT-PCR reaction, using components of the Ultra Sense Kit together with Applied Biosystems primer-probe mixes. Real-time PCR data was analyzed, normalizing the Ct values for hIL-17 to an internal control, prior to determining the fold induction of each unknown sample, relative to the control.

MV4-11 cells = assay: In vivo efficacy in athymic nude mouse acute myeloid leukemia xenograft model using MV4-11 cells; conditions: MV4-11 AML xenograft, oral, 75 mg/kg b.i.d and 120 mg/kg b.i.d
Protocol: MV4-11 cells (ATCC) are grown under standard cell culture conditions and (NCr) nu/nu fisol strain of female mice age 6-7 weeks are injected with 5×10^6 cells/animal in 100 μL PBS+100 μL Matrigel in the lower left abdominal flank. By approximately day 18 after MV4-11 cells injection, mice are randomized based on tumor volume (L×W×H)/2) of average ˜120 mm^3. Mice are dosed orally with compound at 75 mg/kg b.i.d and 120 mg/kg b.i.d in EA006 formulation at 10 mL/kg body weight dose volume. Tumor measurements are taken with electronic micro calipers and body weights measured on alternate days beginning from dosing period. The average tumor volumes, percent Tumor Growth Inhibition (TGI) and % change in body weights are compared relative to Vehicle control animals. The means, statistical analysis and the comparison between groups are calculated using Student's t-test in Excel.

IC50 [1]: ≤ 300 nM | IC50 (hIL-17 mRNA): ≤ 300 nM
SMILES: Cc1noc(C)c1-c1cc(N)c2ncn(Cc3ccccc3)c2c1 [Example Compound 7, 1-Benzyl-6-(3,5-dimethylisoxazol-4-yl)-1H-benzo[d]imidazol-4-amine]
In vivo activity (MV4-11 cells): Active
